From patent publication US20090012018A1, “Inhibition of pancretic cancer cell growth” (priority 2004, published 2009)
Entries after “also recorded” stand apart in the source; their conditions may differ.

Tests used:
[1] = system: BxPC3 tumors; assay: Subcutaneous tumor treatment in nude mice; format: in vivo, CD-1 nude mice
Experimental: (§1) A total of 0.1 ml Hanks' balanced salt solution and matrigel (1:1) containing 2×10^6 cells was injected subcutaneously into CD-1 nude mice (Charles River Laboratories). Tumors were grown for 4 days to a minimum volume of 125 mm^3. Treatment was initiated simultaneously for all subjects. Mice were injected with vector alone (peanut oil: PBS 7:3 v/v) or with a sulindac solution (3 mg/mouse/day) daily for 5 days. Sulindac sulfone was administered orally (1.5 mg/mouse/day). At the end of the treatment period, tumors were excised from mice, weighed and photographed.

[2] = system: CFPAC-1; assay: Sensitivity of pancreatic adenocarcinoma cells to drug treatment (cell proliferation, apoptosis); format: cell-based, human; settings: CFPAC-1 (CFPAC); vs untreated controls; FIG. 3B, 5
Experimental: (§2) The culture media was changed every 48 hrs.
(§3) Cells were pulsed with 10 μM BrdU for two hours and then harvested and fixed. BrdU incorporation was detected with a fluorescein isothiocyanate conjugated anti-BrdU antibody (BD Biosciences) and total DNA was stained with 7-AAD (BD Biosciences). FACS analysis was performed according to the BD Biosciences BrdU flow kit manual. Cells in S-phase were defined as the BrdU-positive cell population with a DNA content between 2N and 4N. According to the manual, apoptotic cells were defined as a subpopulation of G0/G1 cells with DNA content lower than the diploid amount (<2N).

[3] = system: pancreatic adenocarcinoma cell lines; assay: Growth, BrdU incorporation and apoptosis of pancreatic cancer cell lines (results stated for the lines together); format: cell-based, human; settings: 7/13 lines
Experimental: The small chemical inhibitors were used at the following final concentrations: up to 250 μM for sulindac (Sigma), up to 300 μM for sulindac sulfone (Calbiochem or ICN), NS-398 up to 25 μM (Calbiochem), sodium salicylate up to 100 μM (Calbiochem). […] To test for drug sensitivity, the cells were plated in control medium or in medium containing the drug of interest for 2 to 5 days. The culture media was changed every 48 hrs. The images showing cell morphology were taken with a Nikon inverted microscope.
as §3
(§4) The cell lines were plated the day prior to transfection at a density of 8×10^4 cells/well in a 24-well plate. The luciferase reporter constructs used included: Top-Flash and Fop-Flash containing multimerized Tcf-Lef binding sites or nonfunctional sites, respectively; TK-Luc (Promega); and GliBS containing 8×Gli binding sites upstream of the TK minimal promoter (Sasaki et al., Development, 124:1313-1322, 1997). In different experiments, the reporter constructs were co-transfected with an expression vector containing a dominant-negative form of Lef1 or the endogenous Wnt inhibitor Icat. The dominant negative Lef1 (gift from S. Pleasure) was generated by cloning the 63 amino acid N-terminal deleted form of Lef1 into the pEF5 plasmid. This construct also contains an IRES-EGFP cassette. The cDNA coding for the Icat protein was cloned into pIRES2-EGFP (BD Biosciences Clontech). Transfections were performed using the Effectene transfection reagent […] according to the user's manual. A Renilla luciferase plasmid (Promega) was included to control for transfection efficiency. Transfected cells were cultured in medium containing serum. […] Cells were harvested 24 hrs after transfection, and luciferase activity was assayed using the Dual Luciferase kit (Promega), according to the user's manual.
Small interfering RNA (siRNA) oligonucleotides against β-catenin containing two thymidine residues (dTdT) at the 3′ end of the sequence (5′-[…] […] T-3′ set forth as SEQ ID NO:57) were used for treatment of cancer cells as described (Verma et al., Clin Cancer Res, 9:1291-1300, 2003). The GLI1 siRNA (sense 5′-[…] […]-3′ set forth as SEQ ID NO:58) was also used as described (Sanchez et al., Proc Natl Acad Sci USA 101:12561-12566, 2004). Small interfering RNA against GLI2 was ordered against the target sequence 5-[…] […] A-3′, set forth as SEQ ID NO:59). […] Cells were transfected with oligofectamine (Invitrogen) according to the user's manual, with a final siRNA concentration of 100 or 300 nM. Transfected cells were incubated for 48 hrs before harvesting.

[4] = system: Panc3.27; assay: Sensitivity of pancreatic adenocarcinoma cells to drug treatment (cell proliferation); format: cell-based, human; settings: reduction in cell proliferation
Experimental: as §2, §3

[5] = system: Panc6.03; assay: as above; format: cell-based, human; settings: reduction in cell proliferation
Experimental: as §2, §3

[6] = system: L3.6pl; assay: as above; format: cell-based, human; settings: reduction in cell proliferation
Experimental: as §2, §3

[7] = system: Panc2.03; assay: as above; format: cell-based, human; settings: reduction in cell proliferation
Experimental: as §2, §3

[8] = system: Tcf1; assay: Immunofluorescence of Tcf expression in pancreatic cancer cells; format: cell-based, human; settings: pancreatic cancer cells (Panc4.21); cyclopamine for 24 hrs (FIG. 4C) or sulindac-treated
[9] = system: Tcf4; assay: as above; format: cell-based, human; settings: cyclopamine for 24 hrs (FIG. 4C) or sulindac-treated
[10] = system: Wnt signaling (Top-Flash reporter); assay: Fop/Top-Flash luciferase reporter assay; format: cell-based, human; settings: CFPAC-1, BxPC3, L3.6sl, Panc4.21, 24 hrs after transfection, sulindac 250 μM, sulindac sulfone 150 μM, cyclopamine 10 μM, or co-transfection
Experimental: as §4
For each Fop-luciferase or Top-luciferase experiment, a renilla luciferase construct was included. For each experimental condition (drug treatment, co-transfection or siRNA), triplicate Top- and Fop-luciferase samples were analyzed. To equilibrate the total vector-DNA (or siRNA) amount in all samples, equivalent amounts of an empty expression vector or unrelated siRNAs were transfected into control samples. The following equations were used to obtain the normalized luciferase values and the relative (fold) activation. The firefly luciferase (Fop and Top) values were divided by the renilla luciferase values to obtain the normalized luciferase values. The normalized Top values for each condition were divided by the Fop values of the same condition (e.g., untreated Top/untreated Fop; drug-treated Top/drug-treated Fop). […] To minimize the number of bars in each figure, only representative average Fop values are included in the graphs.

[11] = system: L3.6sl tumors; assay: Subcutaneous tumor treatment in nude mice; format: in vivo, CD-1 nude mice
Experimental: as §1
Individual or combined treatment was initiated after tumors were palpable.

[12] = system: Hedgehog signaling (GliBS-luc reporter); assay: GliBS-luciferase reporter assay; format: cell-based, human; settings: CFPAC-1, BxPC3, L3.6sl, Panc4.21; cyclopamine 10 μM, sulindac 250 μM; FIG. 4B
Experimental: The cell lines were plated the day prior to transfection at a density of 8×10^4 cells/well in a 24-well plate. The luciferase reporter constructs used included: Top-Flash and Fop-Flash containing multimerized Tcf-Lef binding sites or nonfunctional sites, respectively; TK-Luc (Promega); and GliBS containing 8×Gli binding sites upstream of the TK minimal promoter (Sasaki et al., Development, 124:1313-1322, 1997). In different experiments, the reporter constructs were co-transfected with an expression vector containing a dominant-negative form of Lef1 or the endogenous Wnt inhibitor Icat. The dominant negative Lef1 (gift from S. Pleasure) was generated by cloning the 63 amino acid N-terminal deleted form of Lef1 into the pEF5 plasmid. This construct also contains an IRES-EGFP cassette. The cDNA coding for the Icat protein was cloned into pIRES2-EGFP (BD Biosciences Clontech). Transfections were performed using the Effectene transfection reagent […] according to the user's manual. A Renilla luciferase plasmid (Promega) was included to control for transfection efficiency. Transfected cells were cultured in medium containing serum. […] Cells were harvested 24 hrs after transfection, and luciferase activity was assayed using the Dual Luciferase kit (Promega), according to the user's manual. […]

[13] = sulindac 3 mg/mouse/day injected daily for 5 days
[14] = treated for five days vs untreated controls, sulindac 3 mg/mouse/day injected, sulindac sulfone 1.5 mg/mouse/day orally

- activity of the GliBS-luc Hedgehog reporter [12]: unaffected; also recorded: had no affect
Compound: CC1=C(CC(=O)O)c2cc(F)ccc2/C1=C\c1ccc([S+](C)[O-])cc1 (stereo not drawn) [sulindac]
- reduction in tumor volume compared to untreated samples [1, 13]: 80%
- tumor growth [1, 14]: strongly reduced
- cell growth (proliferation, apoptosis) [2]: not affected; also recorded: only marginally affected
- lines tested with measurable reduction in cell proliferation [3]: 54%
- Sulindac Sensitivity [4]: Positive
- Sulindac Sensitivity [5]: Positive
- Sulindac Sensitivity [6]: Positive
- Sulindac Sensitivity [7]: Positive
- Tcf1 expression [8]: reduced
- Tcf4 expression [9]: reduced
- Top-Flash reporter activity (Wnt signaling) [10]: inhibit Wnt activity; also recorded: inhibited; also recorded: showed an inhibitory effect
- Top-Flash reporter activity (Wnt signaling) ([10]; listed as Sulindac): suppressed Top-Flash reporter activation in all cell lines tested
- reduction in tumor volume compared to untreated samples [11, 13]: 80%
- tumor growth [11, 14]: strongly reduced
